# In patent publication US20180125816A1, “SAROGLITAZAR MAGNESIUM FOR THE TREATMENT OF CHYLOMICRONEMIA SYNDROME” (CADILA HEALTHCARE LIMITED, priority 2015, published 2018):
# Columns and labels:
# Zucker fa/fa rats [1] = assay: Severe hypertriglyceridemia induced by Triton WR-1339 (inhibition of LPL) in Zucker fa/fa rats, serum triglycerides; format: in vivo, rat; settings: for % Change in AUC-TG vs Vehicle Control: AUC 0-48 hr; for reduction in serum triglycerides (TG): 0-hr time point, after repeat dose treatment
# Experimental: The obese Zucker (fatty) rat is one of the oldest models of NIDDM, resembling human type II diabetes, i.e. diabetes associated with obesity. It is characterized by hyperphagia and associated with mild hyperglycaemia, insulin resistance, mild glucose intolerance, hyperlipidaemia specially hypertriglyceridemia. When the non-ionic detergent Triton WR-1339 is injected into Zucker fa/fa rats, there is a progressive accumulation of triacylglycerols in the plasma/serum (Friedman & Byers, 1953; Otway & Robinson, 1967). […] So the nonionic detergent, Triton WR-1339 (Triton), has commonly been used to inhibit LPL for this purpose to produce the condition of severe hypertriglyceridemia similar to familial chylomicronemia syndrome and Type V hyperlipoproteinemia.
# In this study 20 male and 14 female Zucker fa/fa rats of 6-10 weeks of age were selected for the and on day-0, body weight of animals recorded and blood samples (approximately 80 μl to 90 μl) was collected via retro orbital route using isoflurane as inhalation anaesthesia, serum separated and serum triglyceride estimated and 24 animals were selected and grouped on the basis of serum triglyceride level as primary parameter as below
# From hyphen or day-1 to Day-14, compounds were formulated in 5% PEG+5% Tween 80+90% (0.5%) Na-CMC in such, a way that the final volume of administration was 2 ml/kg of body wt, and animals were dosed orally once daily as per grouping details.
# On day-14 blood samples were collected after 1 hour of dosing, serum separated and serum triglycerides (TG) was estimated. Animals were being kept on 24 hours fasting after completion of day-14 activities. On day-15, after 24 hours of fasting, body wt. of all animals was recorded. Then formulations of treatment items were prepared in vehicle and Triton WR-1339 prepared in 0.9% saline for intraperitoneal injection at dose of 250 mg/kg per 5 ml. Basal blood samples collected and animals were administered orally with respective treatment and immediately injected intraperitoneally with Triton WR-1339. Blood samples (approx, 1 ml per sample) were also collected at 6 hr, 24 hours and 48 hours after triton administration and serum triglycerides levels were estimated using Cobas C 311 clinical chemistry autoanalyser from Roche Diagnostics using commercial diagnostic kits.
# % change at 6-hr, 24-hr and 48-hr for TG vs Vehicle Control was calculated using MS using MS Excel. The area under curve for TG, AUC-TG (0-48), was calculated using Graph Pad® software.
# Zucker fa/fa rats [2] = assay: Fatty tolerance test with 13C-palmitate/corn oil after 14 days repeated dosing: hyper-chylomicronemia and chylomicron dynamics; format: in vivo, rat; settings: for 13C Palmitate / Palmitate total: adipose tissue
# Experimental: In this study, the effect of Compound (1) on hyper-chylomicronemia and chylomicron dynamics in Zucker fa/fa rats after 14 days repeated dose administration was evaluated.
# Zucker (fa/fa) fatty rat of 7-8 weeks of age were purchased from Charles River Laboratory and single-housed under a pathogen free environment with constant room temperature (20-22° C.) and relative humidity (40-50%) and a 6:00 pm-6:00 am dark-light cycle. Rats were provided with free access to food (Lab Diet 5L0D, an irradiated regular rodent diet containing 23% of protein and 4.5% of fat) and water. Initial body weight and body composition (using a NMR analyzer) were measured 6 days post-arrival. The rats were then randomly divided into four dosing groups based BW and fat mass as below—
# Dosing was begun at 9-10 weeks of age, once daily (8-10 am) by oral gavage for 14 days. On the day-14 of dosing, a final body composition (after dosing) was measured. On day-15, all animals were given a fatty tolerance test (FTT) after being fasted overnight (15-16 hours), followed by blood and tissue collection.
# Fatty Tolerance Test Procedure (FTT): • 1. Following an overnight fast, rats were orally gavaged with a mixture of ^13C-Palmitic Acid (1 and corn oil (1 g of^13C-P dissolved in 5 ml of corn oil) at 5 ml/kg·bw. • 2. Blood samples were collected via tail vein bleeding using 3×300 ul EDTA tubes at the following time points:
# 0 hour (initial), 1 hour, 2 hour, 3 hour, 4 hour, 5 hour, 6 hour, 8 hour
# After the 8 hour bleeding, rats were knocked down in a drop jar using isoflurane. Once sedated, the rats were hooked up to a Midmark Matrx Anesthesia isoflurane machine that dispensed isoflurane vapor at […] with an oxygen flow rate of 1 L/min. Organs and tissues were dissected and frozen immediately in liquid nitrogen and stored at −80° C. LCMS and GCMS were used to assess the incorporation of ^13C lipids into plasma and tissue lipids (n=5 for tissue metabolomics studies).
structure (smiles),measurement,setting,value
"CCO[C@@H](Cc1ccc(OCCn2c(C)ccc2-c2ccc(SC)cc2)cc1)C(=O)O [Compound (1), Saroglitazar Magnesium]",reduction in AUC-TG Vs Vehicle control group,Zucker fa/fa rats [1]; 1 mg/kg,48%
same,AUC-TG (0-48 hr.),Zucker fa/fa rats [1]; 1 mg/kg p.o. once daily,54241.5 ± 11182.3 mg·h/dL
same,Serum Triglycerides after Triton WR-1339 administration,"Zucker fa/fa rats [1]; 1 mg/kg p.o. once daily, 0 hr",188.3 ± 15.6 mg/dL
same,Serum Triglycerides after Triton WR-1339 administration,"Zucker fa/fa rats [1]; 1 mg/kg p.o. once daily, 6 hr",438.5 ± 52.7 mg/dL
same,Serum Triglycerides after Triton WR-1339 administration,"Zucker fa/fa rats [1]; 1 mg/kg p.o. once daily, 24 hr",1797.2 ± 331.3 mg/dL
same,Serum Triglycerides after Triton WR-1339 administration,"Zucker fa/fa rats [1]; 1 mg/kg p.o. once daily, 48 hr",889.5 ± 353.9 mg/dL
same,% Change in TG Vs Vehicle Control,"Zucker fa/fa rats [1]; 1 mg/kg p.o., 0 hr after Triton WR-1339",−63.7 ± 3.0%
same,% Change in TG Vs Vehicle Control,"Zucker fa/fa rats [1]; 1 mg/kg p.o., 6 hr after Triton WR-1339",−43.6 ± 6.8%
same,% Change in TG Vs Vehicle Control,"Zucker fa/fa rats [1]; 1 mg/kg p.o., 24 hr after Triton WR-1339",−44.7 ± 10.2%
same,% Change in TG Vs Vehicle Control,"Zucker fa/fa rats [1]; 1 mg/kg p.o., 48 hr after Triton WR-1339",−59.1 ± 16.3%
same,% Change in AUC-TG vs Vehicle Control,Zucker fa/fa rats [1]; 1 mg/kg p.o.,−48.4 ± 10.6%
same,reduction in serum triglycerides (TG),Zucker fa/fa rats [1]; 1 mg/kg,64%
same,reduction in AUC-TG Vs Vehicle control group,Zucker fa/fa rats [1]; 10 mg/kg,63%
same,AUC-TG (0-48 hr.),Zucker fa/fa rats [1]; 10 mg/kg p.o. once daily,39050.3 ± 6922.7 mg·h/dL
same,Serum Triglycerides after Triton WR-1339 administration,"Zucker fa/fa rats [1]; 10 mg/kg p.o. once daily, 0 hr",93.2 ± 7.9 mg/dL
same,Serum Triglycerides after Triton WR-1339 administration,"Zucker fa/fa rats [1]; 10 mg/kg p.o. once daily, 6 hr",328.9 ± 111.9 mg/dL
same,Serum Triglycerides after Triton WR-1339 administration,"Zucker fa/fa rats [1]; 10 mg/kg p.o. once daily, 24 hr",1463.8 ± 265.3 mg/dL
same,Serum Triglycerides after Triton WR-1339 administration,"Zucker fa/fa rats [1]; 10 mg/kg p.o. once daily, 48 hr",340.4 ± 151.7 mg/dL
same,% Change in TG Vs Vehicle Control,"Zucker fa/fa rats [1]; 10 mg/kg p.o., 0 hr after Triton WR-1339",−82.0 ± 1.5%
same,% Change in TG Vs Vehicle Control,"Zucker fa/fa rats [1]; 10 mg/kg p.o., 6 hr after Triton WR-1339",−57.7 ± 14.4%
same,% Change in TG Vs Vehicle Control,"Zucker fa/fa rats [1]; 10 mg/kg p.o., 48 hr after Triton WR-1339",−84.3 ± 7.0%
same,% Change in AUC-TG vs Vehicle Control,Zucker fa/fa rats [1]; 10 mg/kg p.o.,−62.9 ± 6.6%
same,reduction in serum triglycerides (TG),Zucker fa/fa rats [1]; 10 mg/kg,82%
same,lowering of TG levels (in words),"Zucker fa/fa rats [1]; 1 and 10 mg/kg, all time points after Triton WR-1339",dose dependent lowering of TG levels at all-time points
same,blunting an increase in serum triglycerides (in words),Zucker fa/fa rats [1]; compared to fenofibrate,significantly effective in blunting an increase in serum triglycerides
same,plasma triglyceride (TG) in FTT (in words),Zucker fa/fa rats [2]; 0 and 2 hour post corn oil treatment,significantly reduced plasma triglyceride (TG)
same,% Change in 13C Palmitate uptake in adipose tissue Vs Vehicle Control,Zucker fa/fa rats [2]; 0.4 mg/kg p.o.,86%
same,Plasma TG in FTT,"Zucker fa/fa rats [2]; 0.4 mg/kg p.o. 14 days, 0 min",330.5 ± 39.2 mg/dL
same,Plasma TG in FTT,"Zucker fa/fa rats [2]; 0.4 mg/kg p.o. 14 days, 120 min",389.2 ± 21.8 mg/dL
same,13C Palmitate,Zucker fa/fa rats [2]; 0.4 mg/kg p.o.,6.20 ± 0.89 Nanomole/mg protein
same,Palmitate total,Zucker fa/fa rats [2]; 0.4 mg/kg p.o.,7.14 ± 0.30 micromole/mg protein
same,% Change in 13C Palmitate uptake in adipose tissue Vs Vehicle Control,Zucker fa/fa rats [2]; 4 mg/kg p.o.,247%
same,Plasma TG in FTT,"Zucker fa/fa rats [2]; 4 mg/kg p.o. 14 days, 0 min",84.7 ± 9.3 mg/dL
same,Plasma TG in FTT,"Zucker fa/fa rats [2]; 4 mg/kg p.o. 14 days, 120 min",171.3 ± 28.2 mg/dL
same,13C Palmitate,Zucker fa/fa rats [2]; 4 mg/kg p.o.,11.57 ± 0.73 Nanomole/mg protein
same,Palmitate total,Zucker fa/fa rats [2]; 4 mg/kg p.o.,6.60 ± 0.29 micromole/mg protein
same,fasting and postprandial TG levels (in words),Zucker fa/fa rats [2]; conclusion of the study,significantly reduces fasting and postprandial TG levels
same,increase in accumulation of M+16 palmitate in adipose tissue,Zucker fa/fa rats [2]; high dose (4 mg/kg),247%
same,appearance of M+16 TG species TG (52:3) and TG (52:4) in plasma (in words),Zucker fa/fa rats [2]; low (0.4 mg/kg) and high (4 mg/kg) dose,significantly attenuated the appearance of M+16 TG
same,gastrocnemius M+16 palmitate labeling (in words),Zucker fa/fa rats [2]; low and high dose (0.4 and 4 mg/kg),decreased gastrocnemius M+16 palmitate labeling
same,increase in accumulation of M+16 palmitate in adipose tissue,Zucker fa/fa rats [2]; low dose (0.4 mg/kg),86%
"CC(C)OC(=O)C(C)(C)Oc1ccc(C(=O)c2ccc(Cl)cc2)cc1 [Fenofibrate, reference compound]",reduction in AUC-TG Vs Vehicle control group,Zucker fa/fa rats [1]; 65 mg/kg,11%
same,AUC-TG (0-48 hr.),Zucker fa/fa rats [1]; 65 mg/kg p.o. once daily,93412.8 ± 12023.5 mg·h/dL
same,Serum Triglycerides after Triton WR-1339 administration,"Zucker fa/fa rats [1]; 65 mg/kg p.o. once daily, 0 hr",324.9 ± 45.3 mg/dL
same,Serum Triglycerides after Triton WR-1339 administration,"Zucker fa/fa rats [1]; 65 mg/kg p.o. once daily, 6 hr",1048.1 ± 147.4 mg/dL
same,Serum Triglycerides after Triton WR-1339 administration,"Zucker fa/fa rats [1]; 65 mg/kg p.o. once daily, 24 hr",2871.5 ± 357.4 mg/dL
same,Serum Triglycerides after Triton WR-1339 administration,"Zucker fa/fa rats [1]; 65 mg/kg p.o. once daily, 48 hr",1630.0 ± 329.8 mg/dL
same,% Change in TG Vs Vehicle Control,"Zucker fa/fa rats [1]; 65 mg/kg p.o., 0 hr after Triton WR-1339",−37.4 ± 8.7%
same,% Change in TG Vs Vehicle Control,"Zucker fa/fa rats [1]; 65 mg/kg p.o., 6 hr after Triton WR-1339",34.9 ± 19.0%
same,% Change in TG Vs Vehicle Control,"Zucker fa/fa rats [1]; 65 mg/kg p.o., 48 hr after Triton WR-1339",−25.0 ± 15.2%
same,% Change in 13C Palmitate uptake in adipose tissue Vs Vehicle Control,Zucker fa/fa rats [2]; 150 mg/kg p.o.,−14%
same,Plasma TG in FTT,"Zucker fa/fa rats [2]; 150 mg/kg p.o. 14 days, 120 min",502.2 ± 8.1 mg/dL
same,13C Palmitate,Zucker fa/fa rats [2]; 150 mg/kg p.o.,2.88 ± 0.57 Nanomole/mg protein
same,Palmitate total,Zucker fa/fa rats [2]; 150 mg/kg p.o.,6.90 ± 0.24 micromole/mg protein
